Assay results taken from patent publication US20260306527A1, “PRMT INHIBITOR COMPOUNDS AND THE USES THEREOF” (Purdue Research Foundation, priority 2023, published 2026).

Tests used:
[1] = biological target: PRMT6 (Homo sapiens, UniProt Q96LA8); test: selectivity of YD1113/YD1290 on PRMT panel, PRMT6; assay type: biochemical; settings: 10 μM; PRMT panel
Procedure: (§1) The selectivity of compounds YD1113 and YD1290 on PRMTs were performed by Reaction Biology Corp.
(§2) Next, the selectivity of YD1113 was investigated on a panel of PRMTs at 10 μM.
(§3) After validating the benzyl urea moiety as an unconventional homocysteine mimic of SAH for PRMTs, it was hypothesized that incorporating the benzyl urea moiety into the original pan PRMT inhibitor II757 would build a potent bisubstrate inhibitor. […] To enable a stable tri-substitution, the sulfur atom with a nitrogen atom was replaced. YD1290 was synthesized following the reported methods 9, 15 and tested in a radioactivity assay for PRMTs (FIG. 6b).

[2] = test system: PRMT3; test: SAHH-coupled fluorescence assay, inhibition of PRMT3; assay type: biochemical; settings: read-out: IC50 [µM] | PRMT3
Procedure, shortened: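 Coupled SAHH/ThioGlo4 fluorescence read-out (ex 380 nm, em 505 nm) of PRMT3 (0.25 μM) methylation with 30 μM AdoMet and 5 μM SAHH. Buffer was 20 mM Tris pH 7.5 with 0.01% Triton X-100. Run in duplicate.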

[3] = biological target: T1, PRMT4 (Homo sapiens, UniProt Q86X55); test: thermal shift assay PRMT4; assay type: binding; settings: 100 μM compound, 20 μM protein
T1 construct: PRMT4 (residues 140-480) was cloned into the pFBOH-MHL vector; tag of the pFBOH-MHL vector (poly-His implied by Ni-NTA purification; not described); made in house; host or cells: Sf9 insect cells
T1 sequence (Q86X55 140-480): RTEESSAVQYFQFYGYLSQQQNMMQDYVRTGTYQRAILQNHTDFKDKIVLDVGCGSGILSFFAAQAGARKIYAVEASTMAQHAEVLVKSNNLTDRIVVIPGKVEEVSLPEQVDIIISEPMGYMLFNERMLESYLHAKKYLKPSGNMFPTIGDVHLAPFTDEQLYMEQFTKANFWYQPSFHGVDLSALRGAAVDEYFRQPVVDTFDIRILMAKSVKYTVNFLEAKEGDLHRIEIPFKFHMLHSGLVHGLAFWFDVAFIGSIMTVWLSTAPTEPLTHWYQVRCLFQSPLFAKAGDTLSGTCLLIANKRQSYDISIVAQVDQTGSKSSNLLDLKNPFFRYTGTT
Procedure: The fluorescence-based thermal shift assay was performed using a StepOne plus qPCR instrument (Thermal Fisher). For PRMT1, 10 μM of protein was mixed with 2× sypro orange and DMSO, or 100 μM SAM, or 100 μM YD1113, or 100 μM YD1290 in a buffer consisting of 2.5 mM HEPES (pH=7.0), 25 mM NaCl, 25 μM EDTA, 50 μM TCEP, 0.01% Triton X-100. For PRMT3, 20 μM of protein was mixed with 2× sypro orange and DMSO, or 100 μM SAM, or 100 μM YD1113, or 100 μM YD1290 in a buffer consisting of 20 mM Tris (pH=7.5), 0.01% Triton X-100. For PRMT4, 20 μM of protein was mixed with 2× sypro orange and DMSO, or 100 μM SAM, or 100 μM YD1113, or 100 μM YD1290 in a buffer consisting of 20 mM bicine (pH=8.5), 0.01% Triton X-100. All samples were heated from 25° C. to 75° C. at an increased rate of 0.5° C. per minute. Protein denaturation was monitored by the increased fluorescence signal of Sypro Orange, which captures exposed hydrophobic residues during thermal unfolding. The recorded curves were analyzed by the software StepOne plus and plotted in GraphPad Prism 8 software.
Next, the thermal shift assay (TSA) was conducted as an orthogonal method to examine the effects of YD1290 on the thermal stability of PRMT1, 3, and 4 (Figure S1).

[4] = test system: PRMT3/4/5; test: inhibition of PRMT3/4/5 (summary); assay type: biochemical; settings: range over PRMT3/4/5
Procedure: as §1

[5] = biological target: PRMT5 (Homo sapiens, UniProt O14744); test: selectivity of YD1113 on PRMT panel, PRMT5; assay type: biochemical; settings: read-out: IC50 value PRMT5
Sequence of PRMT5 (O14744 whole entry, species assumed): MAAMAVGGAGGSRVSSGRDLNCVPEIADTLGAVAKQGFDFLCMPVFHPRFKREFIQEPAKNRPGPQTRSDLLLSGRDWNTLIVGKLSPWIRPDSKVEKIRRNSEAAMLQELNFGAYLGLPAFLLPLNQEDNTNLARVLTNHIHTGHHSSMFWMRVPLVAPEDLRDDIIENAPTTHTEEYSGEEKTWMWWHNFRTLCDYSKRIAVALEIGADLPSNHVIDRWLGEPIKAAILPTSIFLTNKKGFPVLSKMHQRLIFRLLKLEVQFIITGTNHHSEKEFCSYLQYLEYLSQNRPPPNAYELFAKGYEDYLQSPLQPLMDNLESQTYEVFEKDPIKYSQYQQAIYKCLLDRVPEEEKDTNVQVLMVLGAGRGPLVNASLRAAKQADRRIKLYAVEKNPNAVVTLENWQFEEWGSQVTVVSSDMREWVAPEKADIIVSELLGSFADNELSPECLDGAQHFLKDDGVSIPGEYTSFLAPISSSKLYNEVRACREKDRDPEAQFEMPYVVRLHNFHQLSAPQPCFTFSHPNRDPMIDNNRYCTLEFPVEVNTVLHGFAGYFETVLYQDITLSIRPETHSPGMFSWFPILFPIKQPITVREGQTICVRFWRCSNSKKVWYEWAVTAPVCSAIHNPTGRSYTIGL
Sequence of PRMT5 (Q9BQA1 whole entry partner, species assumed): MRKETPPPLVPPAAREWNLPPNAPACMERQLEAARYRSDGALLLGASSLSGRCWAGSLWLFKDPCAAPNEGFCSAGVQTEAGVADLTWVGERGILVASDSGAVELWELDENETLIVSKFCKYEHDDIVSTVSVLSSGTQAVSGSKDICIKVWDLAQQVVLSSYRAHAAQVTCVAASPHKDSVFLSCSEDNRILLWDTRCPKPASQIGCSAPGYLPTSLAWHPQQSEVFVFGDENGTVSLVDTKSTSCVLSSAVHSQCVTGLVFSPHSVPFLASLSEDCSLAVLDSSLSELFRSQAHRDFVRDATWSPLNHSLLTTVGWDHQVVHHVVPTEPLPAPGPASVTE
Procedure: as §1, §2

[6] = biological target: PRMT8 (Homo sapiens, UniProt Q9NR22); test: radioactive assay (Reaction Biology Corp.), inhibition of PRMT8; assay type: biochemical
Sequence of PRMT8 (Q9NR22 whole entry, species assumed): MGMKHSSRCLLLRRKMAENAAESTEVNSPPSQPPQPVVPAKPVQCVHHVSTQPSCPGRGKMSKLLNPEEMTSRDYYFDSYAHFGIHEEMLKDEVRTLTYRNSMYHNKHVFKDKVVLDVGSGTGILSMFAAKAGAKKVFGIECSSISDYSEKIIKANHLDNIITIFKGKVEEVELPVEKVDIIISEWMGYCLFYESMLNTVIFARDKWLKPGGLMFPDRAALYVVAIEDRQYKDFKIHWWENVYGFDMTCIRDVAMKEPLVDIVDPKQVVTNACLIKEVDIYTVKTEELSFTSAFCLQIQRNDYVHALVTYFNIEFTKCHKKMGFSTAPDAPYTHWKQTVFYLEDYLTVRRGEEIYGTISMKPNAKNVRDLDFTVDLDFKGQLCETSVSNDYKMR
Procedure: Next, the inhibition activity of the library was investigated for five PRMT members from type I PRMTs.
The PRMT 4, 6 and 8 methylation assays were performed by Reaction Biology corp.

[7] = biological target: T2, PRMT3 (Homo sapiens, UniProt O60678); test: selectivity of YD1113/YD1290 on PRMT panel, PRMT3; assay type: biochemical
Procedure, shortened: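 Radioactivity-based PRMT activity assay run by an external provider; YD1113 profiled across the PRMT panel at 10 μM.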
Target sequence in this assay (O60678 whole entry, species assumed): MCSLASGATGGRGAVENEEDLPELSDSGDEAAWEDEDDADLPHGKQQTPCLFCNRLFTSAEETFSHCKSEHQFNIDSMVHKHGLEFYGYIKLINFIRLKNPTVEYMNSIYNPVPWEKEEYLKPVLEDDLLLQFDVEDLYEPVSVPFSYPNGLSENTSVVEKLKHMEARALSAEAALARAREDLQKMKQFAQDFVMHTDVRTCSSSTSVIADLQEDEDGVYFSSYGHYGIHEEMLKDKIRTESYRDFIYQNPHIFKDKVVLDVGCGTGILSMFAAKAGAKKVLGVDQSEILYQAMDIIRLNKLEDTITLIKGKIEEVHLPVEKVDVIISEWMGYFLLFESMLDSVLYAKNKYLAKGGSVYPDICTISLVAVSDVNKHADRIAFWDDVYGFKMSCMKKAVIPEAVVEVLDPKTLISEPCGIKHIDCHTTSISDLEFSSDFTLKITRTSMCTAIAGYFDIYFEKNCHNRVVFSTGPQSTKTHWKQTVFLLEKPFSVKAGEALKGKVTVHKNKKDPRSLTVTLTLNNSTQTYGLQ

[8] = biological target: T3, PRMT1 (Homo sapiens, UniProt Q99873); test: selectivity of YD1113/YD1290 on PRMT panel, PRMT1; assay type: biochemical; settings: 10 μM; PRMT panel
T3 construct: made in house
T3 sequence (Q99873 whole entry, species assumed): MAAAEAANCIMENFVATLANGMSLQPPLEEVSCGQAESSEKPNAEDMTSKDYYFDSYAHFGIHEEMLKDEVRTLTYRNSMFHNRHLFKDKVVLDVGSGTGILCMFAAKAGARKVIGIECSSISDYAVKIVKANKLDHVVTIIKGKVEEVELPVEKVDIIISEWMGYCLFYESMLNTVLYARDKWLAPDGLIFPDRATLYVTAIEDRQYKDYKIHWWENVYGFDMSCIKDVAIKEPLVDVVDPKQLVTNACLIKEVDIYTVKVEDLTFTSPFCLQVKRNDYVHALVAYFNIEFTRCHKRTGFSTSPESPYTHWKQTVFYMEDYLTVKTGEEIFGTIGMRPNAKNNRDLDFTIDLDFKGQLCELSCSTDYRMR
Procedure: as §1, §2, §3

[9] = biological target: T2, PRMT3; test: inhibition mechanism study on PRMT3, SAHH-coupled fluorescence; assay type: biochemical; design: PRMT3 (residues 211-531) was cloned into the pET28a-MHL expression vector; tag of the pET28a-MHL vector (not described); made in house; host or cells: Escherichia coli BL21(DE3); settings: role: inhibitor
Procedure: The inhibition mechanism of YD1113 on PRMT3 was studied with the fluorescence-based SAHH-coupled assay. Varying concentrations of SAM (from 30 to 240 μM) with 30 μM fixed concentration of H4-21 or varying concentration of H4-21 (from 15 to 240 μM) with 30 μM fixed concentration of SAM were included in reactions at concentration of YD1113 ranging from 1.5 nM to 100 μM.
All the IC50 values were determined in triplicate. Fluorescence was monitored on a BMG CLARIOstar microplate reader with excitation 380 nm and emission 505 nm. Data were processed by using GraphPad Prism software 8.0.
The sensitivity of YD1113 to the steric effects in the above SAR studies (Table 1; FIG. 9) is inexplicable by a relatively open and tolerable peptide substrate binding channel of PRMTs. (Tewary et al. 2019) This contradiction prompted the hypothesis that YD1113 binds to an alternative pocket rather than acts as a bisubstrate analogue to reach the peptide binding pocket. This hypothesis was tested by investigating its inhibition mechanism with a SAHH-coupled fluorescence-based assay. (Richardson et al. 2015) The IC50 values of YD1113 remained constant with the increased ratio of peptide/Km (FIG. 3a-b) while increasing linearly with the ratio of SAM/Km (FIG. 3c-d). […]
Target sequence in this assay (O60678 211-531): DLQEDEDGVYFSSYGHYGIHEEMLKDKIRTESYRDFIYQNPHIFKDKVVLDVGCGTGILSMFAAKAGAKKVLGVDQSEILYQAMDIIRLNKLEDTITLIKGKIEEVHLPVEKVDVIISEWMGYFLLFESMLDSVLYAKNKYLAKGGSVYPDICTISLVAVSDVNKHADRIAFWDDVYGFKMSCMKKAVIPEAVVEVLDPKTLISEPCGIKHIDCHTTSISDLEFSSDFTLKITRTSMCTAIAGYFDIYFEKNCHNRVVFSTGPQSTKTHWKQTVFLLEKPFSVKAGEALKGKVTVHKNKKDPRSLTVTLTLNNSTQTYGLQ

Sequence of PRMT6 (Q96LA8 whole entry, species assumed): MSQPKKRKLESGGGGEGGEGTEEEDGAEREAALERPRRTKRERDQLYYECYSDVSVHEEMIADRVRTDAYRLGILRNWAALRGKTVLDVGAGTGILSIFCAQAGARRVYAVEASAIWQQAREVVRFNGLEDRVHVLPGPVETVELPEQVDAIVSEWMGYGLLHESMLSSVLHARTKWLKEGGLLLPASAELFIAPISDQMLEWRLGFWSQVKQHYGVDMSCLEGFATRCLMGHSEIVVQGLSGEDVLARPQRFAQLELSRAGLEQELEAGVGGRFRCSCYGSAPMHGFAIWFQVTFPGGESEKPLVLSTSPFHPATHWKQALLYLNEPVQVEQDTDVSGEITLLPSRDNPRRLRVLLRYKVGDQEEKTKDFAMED

inhibition at 10 µM [1]: < 35%
IC50 [2]: 0.52 ± 0.07 µM
ΔTm at 100 µM [3]: 2.6 °C
IC50 [4]: 138 to 351 nM
IC50 [5]: 351 nM
inhibition at 10 µM [6]: 12%
IC50 [7]: 321 nM
inhibition at 10 µM [8]: < 35%
inhibition mechanism vs peptide substrate, PRMT3 ([9]; H4-21 15 to 240 μM, SAM 30 μM fixed): noncompetitive to the peptide substrate
inhibition mechanism vs SAM, PRMT3 ([9]; SAM 30 to 240 μM, H4-21 30 μM fixed): competitive to SAM
Structure (SMILES): Nc1ncnc2c1ncn2[C@@H]1O[C@H](CSCCNC(=O)NCc2ccccc2)[C@@H](O)[C@H]1O [Compound 7a, 1-(2-((((2S,3S,4R,5R)-5-(6-amino-9H-purin-9-yl)-3,4-dihydroxytetrahydrofuran-2-yl)methyl)thio)ethyl)-3-benzylurea]
